According to paper PMC12022975, “NMR^2-Based Drug Discovery Pipeline Presented on the Oncogenic Protein KRAS” (Journal of the American Chemical Society, 2025):
Read-outs that look alike come from different tables or passages of the source.

Experiments:
KRAS G12V GMP-PNP [1] = biological target: T1, KRAS G12V GMP-PNP (Homo sapiens, UniProt P01116, G12V); experiment: STD-NMR screening of the DSI-poised fragment library; assay type: binding; details: STD-NMR hit mark; mixtures of six, 600 μM per ligand, 12 μM KRAS; hit if S/N ratio greater than 5
T1 construct: His-tag (TEV-cleavable) (cleaved yes); made in house; host or cells: E. coli BL21* DE3
Description: The STD-NMR and [^15N,^1H]-HSQC screening of the DSI-poised fragment library was performed on a Bruker Avance III HD 600 MHz spectrometer equipped with a cryoprobe and SampleJet. […] Analysis was performed in TopSpin 4.1 and CcpNMR 3.1.[28]
The DSI-poised fragment library comprises 890 molecules, designed such that analogues are readily accessible on the market and can be quickly synthesized.

KRAS G12V GMP-PNP [2] = biological target: T1, KRAS G12V GMP-PNP; experiment: Ligand-titrated [15N,1H]-HSQC affinity determination (TITAN line shape analysis); assay type: binding
Description: A detailed summary for each ligand can be found in the Supporting Information. The NMR data were processed with nmrpipe, and the affinity was analyzed with TITAN.[29]
The amide signals of L6, V7, T74, and G75 were analyzed using the line shape analysis software TITAN.[29] Additionally, the chemical shift perturbation binding curve was analyzed.
MHz spectrometer equipped with a cryoprobe and SampleJet.
4, 5, 9: [15N, 1H]-sofastHSQC experiments were done on a Bruker Ascend console NEO 500 MHz with a prodigy probe head
titrated to ~100 µM KRAS.
spectrometer equipped with a cryoprobe.
Table SI1: Summary of all [1H, 1H] - NOESY spectra measured for all compounds which a NMR2
(1H) [MS] (1H) [MS] [MS] TIME [MS] [MHZ] TIME PER NOESY [H]

[3] = TITAN analysis of L6, V7, T74, G75 amide signals, no saturation reached, interpret with caution, read-out: KD

Compound | STD (KRAS G12V GMP-PNP [1]) | Kd (KRAS G12V GMP-PNP [2]; [3]) | Kd (KRAS G12V GMP-PNP [2])
N=c1sccn1CC(=O)Nc1ccc(F)cc1 [compound 4] | √ | 10 mM | –
Cc1cc2cc[nH]c2cc1C [compound 14] | – | 3.2 mM | –
CNCc1cnn(-c2ccccc2)c1 [compound 9] | √ | 3.3 mM | –
c1coc(CNc2nc3ccccc3[nH]2)c1 [fragment 1, C(c1ccco1)Nc1nc(cccc2)c2[nH]1] | √ | 1.2 mM | –
O=C(CN1CCCC1)Nc1cccc(Cl)c1 [compound 12] | √ | – | –
Nc1ccc(S(=O)(=O)Nc2ccccc2)cc1 [compound 7] | √ | 5.9 mM | –
O=C(O)/C=C/c1c[nH]c2ccccc12 [compound 16] | – | 4.5 mM | –
CS(=O)(=O)Cc1nc2ccccc2[nH]1 [compound 11] | √ | – | –
COc1ccc(C)cc1NC(=O)Nn1cnnc1 [compound 6] | √ | 15 mM | –
Cc1[nH]ncc1CNc1ccccc1F [fragment 5, Cc1n[nH]cc1CNc(cccc1)c1F] | √ | 5.2 mM | –
COc1ccc2sc(N)nc2c1 [compound 10] | √ | – | 5.9 mM
COc1ccc2[nH]cc(CN(C)C)c2c1 [compound 13] | √ | – | –
